Laboratory results: patent publication US8227414B2 ([…].R.L., priority 2005, dated 2012)
Peptide text beside a SMILES is read from it.

Columns and labels:
[1] = tested on: mice; assay: Spontaneous locomotor activity in mice; format: in vivo, mouse; conditions: for Effect on spontaneous locomotor activity: i.c.v., N/OFQ 10 nmol, UFP-112 0.1 nmol
Protocol: (§1) Control animals received one i.c.v. injection of saline (2 μl/mouse). Each point represents the mean±s.e.m. of at least 4 experiments.
3) assay for measurement of spontaneous locomotor activity, as described by Rizzi et al., (Naunyn Schmiedebergs Arch Pharmacol 363, 161-165, 2001.

[2] = tested on: mouse vas deferens; assay: Inhibition of the twitch induced by electrical stimulation of mouse vas deferens; format: cell-based; conditions: for Inhibition of the twitch induced by electric stimulation, Agonist Emax / Inhibition of the twitch induced by electric stimulation, Agonist pEC50 / Inhibition of the twitch induced by electric stimulation, Antagonist pA2: Table 1; for Inhibition of the twitch induced by electric stimulation, Antagonist pA2: against N/OFQ; for Functional behaviour in mouse vas deferens: compared with N/OFQ maximal effect
Protocol: The compounds were tested in vitro on Hamster oocytes membranes expressing the human recombinant NOP receptor (CHOhNoP) (receptor binding experiments and GTP?S binding stimulation experiments) and on the mouse vas deferens after electrical stimulation.

[3] = Metabolic stability in mouse brain homogenate; format: in vitro ADME; conditions: male, Swiss, pH 7.4, mouse brain homogenate, 37° C., mean±standard deviation, read-out: T½ Brain
Protocol: (§2) Plasma and brain tissue samples were obtained from male Swiss mice (Morini, Reggio Emilia, Italy, 25-30 g). The animal, sacrificed by ether anesthesia, was perfused with physiological heparin solution injected through a needle placed in the left ventricle. Blood was then withdrawn and was centrifuged at 14000×g for 2 minutes at room temperature. After separation from the pellet, the plasma was aliquoted and stocked at −80° C. After blood withdrawal, the animal was perfused further with a physiological solution for 2 minutes before brain removal. The brain tissue was homogenized in 5 vol. (w/v) of Tris/HCl (50 mM, pH 7.4, 0° C.) with a ultra-Turrax (Janke Kunkel, Staufen, FRG) 3 times for 15 seconds each. The supernatant obtained by centrifugation (3000×g for 15 min at 4° C.) was decanted and then stocked at −80° C.
(§3) The protein content of the preparations, determined by the Bradford method, as described in Anal. Biochem., 72, 248-254, 1976, was approximately 8 μg/μl for the brain homogenate and 17 μg/μl for the plasma
(§4) An aliquot of 100 μl solution of each peptide (3 mg/500 μl Tris) was incubated (at a final concentration of […]) with brain homogenate or plasma (450 μl) in a total volume of 1 ml, containing Tris/HCl 50 mM pH 7.4 buffer. Incubation of the aliquots was carried out at 37° C. for various periods up to 240 min. At different incubation times, an aliquot of the solution (100 μl) was removed and the degradation was blocked by addition of 4.5% TFA solution (200 μl). After centrifugation (3000 rpm for 15 minutes) an aliquot (100 μl) of supernatant was injected into RP-HPLC. HPLC analysis was performed in a Kromasil 100-5C18 column (4.6×250 mm) using a Beckman System Gold chromatography system equipped with a variable wave length UV detector.
(§5) The experimental conditions for elution included a gradient analysis with water (solvent A) and acetonitrile (solvent B), both containing 0.1% TFA, at a flow rate of 0.7 ml/min. The following protocol was used for gradient analysis, selected on the basis of the physico-chemical characteristics of the analyte: linear gradient from 5% to 40% B in 20 minutes; linear gradient from 40% to 60% B in 5 minutes; linear gradient from 60% to 5% B in 5 minutes. The eluate was monitored at 220 nm. The half life (T1/2) was obtained by linear regression with the least square method, diagramming the peak areas of each derivative as a function of the incubation times, using at least five points for each analysis.

[4] = Metabolic stability in mouse plasma; format: in vitro ADME; conditions: for half-life at 6 μg/μl: male, Swiss, mouse, plasma, pH 7.4, mouse plasma; for Plasma T½ compared to N/OFQ: mouse plasma
Protocol: as §2, §3, §4, §5

[5] = tested on: mice; assay: Food intake in fed mice; format: in vivo, mouse; conditions: for Effect on food intake: equi-effective doses
Description: 2) measurement of food intake in fed animals, as described by Rizzi et al. (National Congress of the Italian Society of Neuroscience and joint Italian-Swedish Neuroscience Meetings, Ischia (Napoli) 1-4 Oct. 2005);

[6] = target: T1, human recombinant opioid receptor mu (MOP) (Homo sapiens, UniProt P35372); assay: Receptor binding on CHO membranes, [3H]-Diprenorphine
T1 construct: expressed in transfected cells; host or cells: CHO cells, membranes
T1 sequence (P35372 whole entry): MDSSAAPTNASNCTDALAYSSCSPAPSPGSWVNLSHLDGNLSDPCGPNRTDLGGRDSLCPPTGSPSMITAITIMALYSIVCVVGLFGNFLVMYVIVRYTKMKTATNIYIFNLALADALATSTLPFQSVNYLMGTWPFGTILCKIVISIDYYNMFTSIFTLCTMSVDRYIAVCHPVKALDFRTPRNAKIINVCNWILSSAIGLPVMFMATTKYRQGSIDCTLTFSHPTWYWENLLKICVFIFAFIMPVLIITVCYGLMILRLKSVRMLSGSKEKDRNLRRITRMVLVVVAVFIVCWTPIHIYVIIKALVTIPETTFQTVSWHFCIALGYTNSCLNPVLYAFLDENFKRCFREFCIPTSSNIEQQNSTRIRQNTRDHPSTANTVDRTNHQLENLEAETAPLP

[7] = target: T2, human recombinant NOP receptor (Homo sapiens, UniProt P41146); assay: Stimulation of GTP?S binding on CHOhNOP membranes; format: biochemical; conditions: for Stimulation upon binding GTP?S, Agonist pEC50: Table 1, membrane of CHOhNOP cells; for Functional behaviour in GTP?S binding: compared with N/OFQ maximal effect; for Emax: read-out: Stimulation upon binding GTP?S, Agonist Emax
T2 construct: expressed in transfected cells; host or cells: CHO cells (CHOhNOP), membranes
T2 sequence (P41146 whole entry): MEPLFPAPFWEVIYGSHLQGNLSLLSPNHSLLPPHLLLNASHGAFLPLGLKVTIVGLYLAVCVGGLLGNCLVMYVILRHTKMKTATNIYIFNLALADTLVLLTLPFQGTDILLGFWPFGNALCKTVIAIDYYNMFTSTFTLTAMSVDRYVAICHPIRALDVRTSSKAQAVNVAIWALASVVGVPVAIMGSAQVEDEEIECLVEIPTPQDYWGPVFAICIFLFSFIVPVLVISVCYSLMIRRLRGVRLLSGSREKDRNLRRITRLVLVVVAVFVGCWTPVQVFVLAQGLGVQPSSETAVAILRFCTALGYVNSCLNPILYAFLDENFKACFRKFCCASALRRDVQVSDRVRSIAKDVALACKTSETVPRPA

[8] = target: T3, human recombinant opioid receptor delta (DOP) (Homo sapiens, UniProt P41143); assay: Receptor binding on CHO membranes, [3H]-Diprenorphine
T3 construct: expressed in transfected cells; host or cells: CHO cells, membranes
T3 sequence (P41143 whole entry): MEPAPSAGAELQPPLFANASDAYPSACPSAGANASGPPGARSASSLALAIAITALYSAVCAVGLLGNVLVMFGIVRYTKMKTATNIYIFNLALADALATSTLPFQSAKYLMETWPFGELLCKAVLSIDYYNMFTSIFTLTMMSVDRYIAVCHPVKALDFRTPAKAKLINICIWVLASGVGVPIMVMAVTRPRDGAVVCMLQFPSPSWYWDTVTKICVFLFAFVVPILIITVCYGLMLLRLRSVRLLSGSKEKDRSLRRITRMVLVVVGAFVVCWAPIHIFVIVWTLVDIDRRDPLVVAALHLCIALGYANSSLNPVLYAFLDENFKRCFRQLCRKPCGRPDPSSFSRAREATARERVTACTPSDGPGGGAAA

[9] = tested on: mice; assay: Tail withdrawal assay in mice; format: in vivo, mouse
Protocol: as §1
1) tail withdrawal assay, according to the experimental protocols described by Calò et al., (Br J Pharmacol 125, 373-378, 1998) and Rizzi et al. (Clin Pharmacol 18, 56, 2004);

[10] = target: T4, human recombinant opioid receptor kappa (KOP) (Homo sapiens, UniProt P41145); assay: Receptor binding on CHO membranes, [3H]-Diprenorphine; conditions: Table 3, CHO cells
T4 construct: expressed in transfected cells; host or cells: CHO cells, membranes
T4 sequence (P41145 whole entry): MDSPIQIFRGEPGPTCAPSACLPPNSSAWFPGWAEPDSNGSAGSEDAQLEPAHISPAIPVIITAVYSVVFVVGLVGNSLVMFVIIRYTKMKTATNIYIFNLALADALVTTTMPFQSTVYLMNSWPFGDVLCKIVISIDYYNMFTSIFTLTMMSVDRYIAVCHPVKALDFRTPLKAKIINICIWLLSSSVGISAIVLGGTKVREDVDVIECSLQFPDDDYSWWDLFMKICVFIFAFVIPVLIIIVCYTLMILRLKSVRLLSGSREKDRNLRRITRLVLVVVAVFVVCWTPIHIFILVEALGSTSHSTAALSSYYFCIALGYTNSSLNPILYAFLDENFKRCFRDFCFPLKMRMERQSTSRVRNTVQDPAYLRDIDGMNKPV

[11] = tested on: vas deferens of knockout mice for the NOP receptor (NOP−/−); assay: Electrically stimulated vas deferens from NOP receptor knockout mice; format: cell-based, mouse
[12] = target: T2, human recombinant NOP receptor; assay: Receptor binding, displacement of tritiated N/OFQ on CHOhNOP membranes
[13] = target: T5, human recombinant NOP receptors expressed in HEK293 cells (Homo sapiens, UniProt P41146); conditions: Okada et al. 2000; cited from earlier work
T5 construct: host or cells: HEK293 cells
T5 sequence (P41146 whole entry): as the sequence (P41146 whole entry) above

[14] = Table 2, wild type (NOP+/+) mice
[15] = 37° C., mean±standard deviation, read-out: T½ Plasma
[16] = Table 3, CHO cells, [3H]-Diprenorphine

Row | Compound | Effect on spontaneous locomotor activity [1] | Inhibition of the twitch induced by electric stimulation, Agonist Emax [2] | Inhibition of the twitch induced by electric stimulation, Agonist pEC50 [2] | Emax NOP+/+ [2, 14] | half-life at 6 μg/μl [3] | half-life at 6 μg/μl [4, 15] | Hyperphagic effects in NOP−/− mice [5] | Effect on food intake ([5]; fed mice) | Inhibition of the twitch induced by electric stimulation, Antagonist pA2 [2] | Functional behaviour in mouse vas deferens [2] | Plasma T½ compared to N/OFQ [4] | Stimulation upon binding GTP?S, Agonist pEC50 [7] | Functional behaviour in GTP?S binding [7] | Emax [7] | other results
1 | CC(C)C[C@H](NC(=O)[C@H](CCCCN)NC(=O)[C@H](CCCNC(=N)N)NC(=O)[C@H](C)NC(=O)[C@H](CO)NC(=O)[C@H](CCCCN)NC(=O)[C@H](CCCNC(=N)N)NC(=O)[C@H](C)NC(=O)CNC(=O)[C@@H](NC(=O)[C@H](Cc1ccccc1)NC(=O)CNC(=O)CNC(=O)[C@@H](N)Cc1ccccc1)[C@@H](C)O)C(=O)N[C@@H](C)C(=O)N[C@@H](CC(N)=O)C(=O)N[C@@H](CCC(N)=O)C(=O)O [N/OFQ, reference compound] | inhibited the locomotor activity | −84 ± 3% | 7.39 | 84 ± 4% | ~0.05 h | 1.07 ± 0.0167 h | absent | significant increase |  |  |  |  |  |  | Time after i.c.v. injection at which locomotor effect ended ([1]; 10 nmol i.c.v.): 60 min; half-life at 6 μg/μl ([4]; read-out: Half life in the plasma (converted)): ~1 h
2 | C[C@H](NC(=O)[C@H](CO)NC(=O)[C@H](CCCCN)NC(=O)[C@H](CCCNC(=N)N)NC(=O)C(C)(C)NC(=O)CNC(=O)[C@@H](NC(=O)[C@H](Cc1ccccc1)NC(=O)CNC(=O)CNC(=O)CNCc1ccccc1)[C@@H](C)O)C(=O)N[C@@H](CCCNC(=N)N)C(=O)N[C@@H](CCCCN)C(=O)N[C@@H](CCCNC(=N)N)C(=O)N[C@@H](CCCCN)C(=O)N[C@@H](CC(N)=O)C(=O)N[C@@H](CCC(N)=O)C(N)=O [UFP-111, [Nphe^1,Aib^7,Arg^14,Lys^15]N/OFQ-NH2] |  |  | Inactive |  | 0.183 ± 0.0317 h | 2.28 ± 0.0667 h |  |  | 7.46 | competitive antagonist | about twice as long | Inactive | competitive antagonist |  | Ki [6]: > 10000 nM; Kb [7]: 2.09 nM; Ki [8]: > 10000 nM
3 | C[C@H](NC(=O)[C@H](CO)NC(=O)[C@H](CCCCN)NC(=O)[C@H](CCCNC(=N)N)NC(=O)C(C)(C)NC(=O)CNC(=O)[C@@H](NC(=O)[C@H](Cc1ccc(F)cc1)NC(=O)CNC(=O)CNC(=O)[C@@H](N)Cc1ccccc1)[C@@H](C)O)C(=O)N[C@@H](CCCNC(=N)N)C(=O)N[C@@H](CCCCN)C(=O)N[C@@H](CCCNC(=N)N)C(=O)N[C@@H](CCCCN)C(=O)N[C@@H](CC(N)=O)C(=O)N[C@@H](CCC(N)=O)C(N)=O [UFP-112, [(pF)Phe^4,Aib^7,Arg^14,Lys^15]N/OFQ-NH2] | inhibited the locomotor activity | −85 ± 2% | 9.48 | 93 ± 3% | 0.188 ± 0.0233 h | 2.78 ± 0.15 h | absent | significant increase |  |  | almost three-fold longer | 10.55 |  | 118 ± 9% | Time after which locomotor effect ended ([1]; 0.1 nmol i.c.v.): about 6 h; Effect in tail withdrawal assay, i.c.v. ([9]; 0.001-0.1 nmol, intracerebroventricular): pronociceptive effects; Effect in tail withdrawal assay, i.t. ([9]; 0.001-0.1 nmol, intrathecal): antinociceptive effects; Tail withdrawal effects in NOP−/− mice ([9]; NOP−/− mice): absent; Duration of action in tail withdrawal test ([9]; equi-effective doses): > 120 min; Potency in vivo relative to N/OFQ ([9]; stated for each in vivo assay (tail withdrawal, food intake, locomotor activity)): about 100 fold; pKi KOP [10]: 8.36; pKi MOP [6, 16]: 7.13; pEC50 NOP+/+ [2, 14]: 8.94; Kinetics of action and reversibility of the effects after washing ([2]; compared with N/OFQ, equi-effective concentrations): much slower; Increase in potency compared to the reference sequence ([2]; mouse vas deferens): more than 100 fold; Action in the mouse vas deferens in presence of naloxone ([2]; naloxone present): not modified; Inhibitory effect on the contraction induced by electrical stimulation in NOP−/− vas deferens [11]: disappeared; pEC50 NOP−/− ([11]; Table 2): <6; Potency relative to N/OFQ in food intake ([5]; fed mice): 100 fold; Receptor binding PKi ([12]; Table 1, membrane of CHOhNOP cells, tritiated N/OFQ): 10.55; pKi NOP ([12]; Table 3, CHO cells, [3H]N/OFQ): 10.55; pKi DOP [8, 16]: 6.37
4 | C[C@H](NC(=O)[C@H](CO)NC(=O)[C@H](CCCCN)NC(=O)[C@H](CCCNC(=N)N)NC(=O)C(C)(C)NC(=O)CNC(=O)[C@@H](NC(=O)[C@H](Cc1ccc(F)cc1)NC(=O)CNC(=O)CNC[C@@H](N)Cc1ccccc1)[C@@H](C)O)C(=O)N[C@@H](CCCNC(=N)N)C(=O)N[C@@H](CCCCN)C(=O)N[C@@H](CCCNC(=N)N)C(=O)N[C@@H](CCCCN)C(=O)N[C@@H](CC(N)=O)C(=O)N[C@@H](CCC(N)=O)C(N)=O [UFP-113, [Phe^1?(CH2—NH)Gly^2,(pF)Phe^4,Aib^7,Arg^14,Lys^15]N/OFQ-NH2] (HELM PEPTIDE1{[N[C@H](CNCC(=O)[*:2])Cc1ccccc1].G.[O=C([C@H](Cc1ccc(F)cc1)N[*:1])[*:2]].T.G.[Aib].R.K.S.A.R.K.R.K.N.Q.[am]}$$$$V2.0) |  |  | Variable agonist effects |  | 0.205 ± 0.0133 h | 1.83 ± 0.167 h |  |  | 9.28 | partial NOP receptor agonist | about twice as long |  | partial NOP receptor agonist | 79 ± 3% | EC50 [7]: 0.191 nM; Ki ([12]; Receptor binding PKi, Table 1, membrane of CHOhNOP cells, tritiated N/OFQ): 0.055 nM
5 | [Arg^14,Lys^15]N/OFQ |  |  |  |  |  |  |  |  |  |  |  |  |  |  | Potency relative to N/OFQ [13]: 17 fold
